Assay results reported in the CombiSolv-Exp solvation set (Vermeire and Green 2021).
One block for each molecule: values may come before it.

Test: solvent given as SMILES
[1] = in CCCCCCCCC=CCCCCCCCC(=O)OCC(COC(=O)CCCCCCCC=CCCCCCCCC)OC(=O)CCCCCCCC=CCCCCCCCC

Structure (SMILES): O=[N+]([O-])c1cccc(Cl)c1Cl
solvation free energy, 298 K (in C1CCCCC1): -8.4 kcal/mol
solvation free energy, 298 K (in CC(C)O): -8.56 kcal/mol
solvation free energy, 298 K (in CCCCCC): -7.97 kcal/mol
solvation free energy, 298 K (in CCCCCCC): -8.07 kcal/mol
solvation free energy, 298 K (in CCCCO): -8.71 kcal/mol
solvation free energy, 298 K (in CCCO): -8.65 kcal/mol
solvation free energy, 298 K (in CCOC(C)=O): -9.93 kcal/mol
solvation free energy, 298 K (in ClC(Cl)(Cl)Cl): -9.46 kcal/mol
solvation free energy, 298 K (in O): -4.22 kcal/mol

Structure (SMILES): Brc1cc(Br)cc(Br)c1
solvation free energy, 298 K [1]: -8.73 kcal/mol
solvation free energy, 298 K (in O): -1.91 kcal/mol

Structure (SMILES): CS
solvation free energy, 298 K (in O): -1.18 kcal/mol

Structure (SMILES): c1ccc2c(c1)OCCOCCOCCOc1ccccc1OCCOCCOCCO2
solvation free energy, 298 K (in Cc1cccc(C)c1): -27.3 kcal/mol
solvation free energy, 298 K (in O): -23.6 kcal/mol

Structure (SMILES): CC(Cl)CCl (centres undefined)
solvation free energy, 298 K (in CCCCCC): -4.17 kcal/mol
solvation free energy, 298 K (in CCCCCCCCO): -4.03 kcal/mol
solvation free energy, 298 K (in ClC(Cl)(Cl)Cl): -4.65 kcal/mol

Structure (SMILES): CCOC=O
solvation free energy, 298 K (in C=CCCCCCCCCCCCCCC): -2.62 kcal/mol
solvation free energy, 298 K (in CC(C)O): -3.15 kcal/mol
solvation free energy, 298 K (in CCC(C)=O): -3.71 kcal/mol
solvation free energy, 298 K (in CCCCCCCCCCCCCCCC): -2.55 kcal/mol
solvation free energy, 298 K (in CCCCCCCCO): -2.98 kcal/mol
solvation free energy, 298 K (in ClC(Cl)(Cl)Cl): -3.33 kcal/mol
solvation free energy, 298 K (in ClC(Cl)Cl): -4.37 kcal/mol
solvation free energy, 298 K (in O): -2.64 kcal/mol
solvation free energy, 298 K (in [2H]O[2H]): -2.64 kcal/mol

Structure (SMILES): Oc1ccccc1Cl
solvation free energy, 298 K (in CC(C)CC(C)(C)C): -5.44 kcal/mol
solvation free energy, 298 K (in CCCCCC): -5.72 kcal/mol
solvation free energy, 298 K (in CCCCCCC): -5.71 kcal/mol
solvation free energy, 298 K (in CCCCCCCC): -5.67 kcal/mol
solvation free energy, 298 K (in CCCCCCCCCC): -5.63 kcal/mol
solvation free energy, 298 K (in Cc1ccc(C)cc1): -6.37 kcal/mol
solvation free energy, 298 K (in Cc1cccc(C)c1): -6.42 kcal/mol
solvation free energy, 298 K (in Cc1ccccc1C): -6.41 kcal/mol
solvation free energy, 298 K (in O): -4.56 kcal/mol

Structure (SMILES): C#CC(C)(C)O
solvation free energy, 298 K (in O): -5.18 kcal/mol

Structure (SMILES): CCCOC(C)=O
solvation free energy, 298 K (in CC(=O)N(C)C): -4.72 kcal/mol
solvation free energy, 298 K (in CC(C)CCCC(C)CCCC(C)CCCCC(C)CCCC(C)CCCC(C)C): -3.84 kcal/mol
solvation free energy, 298 K (in CCCCC(CC)COC(=O)CCCCC(=O)OCC(CC)CCCC): -4.3 kcal/mol
solvation free energy, 298 K (in CCCCCC): -4.03 kcal/mol
solvation free energy, 298 K (in CCCCCCC): -4.02 kcal/mol
solvation free energy, 298 K (in CCCCCCCC): -4.02 kcal/mol
solvation free energy, 298 K [1]: -4.35 kcal/mol
solvation free energy, 298 K (in CCCCCCCCCC): -3.96 kcal/mol
solvation free energy, 298 K (in CCCCCCCCCCCCCCCC): -3.9 kcal/mol
solvation free energy, 298 K (in CCCCCCCCO): -4.33 kcal/mol
solvation free energy, 298 K (in CCCCCO): -4.31 kcal/mol
solvation free energy, 298 K (in CCCCN(C=O)CCCC): -4.56 kcal/mol
solvation free energy, 298 K (in CCOCCO): -4.71 kcal/mol
solvation free energy, 298 K (in CN1CCCC1=O): -4.62 kcal/mol
solvation free energy, 298 K (in CN1CCCCC1=O): -4.72 kcal/mol
solvation free energy, 298 K (in CNC(C)=O): -4.54 kcal/mol
solvation free energy, 298 K (in CO): -4.82 kcal/mol
solvation free energy, 298 K (in NC=O): -3.72 kcal/mol
solvation free energy, 298 K (in O): -2.8 kcal/mol
solvation free energy, 298 K (in O=CN1CCOCC1): -4.42 kcal/mol
solvation free energy, 298 K (in [2H]O[2H]): -2.84 kcal/mol

Structure (SMILES): OC1CCCCC1
solvation free energy, 298 K (in Brc1ccccc1): -6.47 kcal/mol
solvation free energy, 298 K (in C1CCOC1): -7.24 kcal/mol
solvation free energy, 298 K (in CC#N): -6.37 kcal/mol
solvation free energy, 298 K (in CC(C)=O): -6.94 kcal/mol
solvation free energy, 298 K (in CC(C)CC(C)(C)C): -5.02 kcal/mol
solvation free energy, 298 K (in CC(C)O): -7.35 kcal/mol
solvation free energy, 298 K (in CCCCCCCCCCCCCCCC): -4.89 kcal/mol
solvation free energy, 298 K (in CCCCCCCCCCO): -7.49 kcal/mol
solvation free energy, 298 K (in CCCCCCCCO): -7.02 kcal/mol
solvation free energy, 298 K (in CCCCOC(C)=O): -7.07 kcal/mol
solvation free energy, 298 K (in CO): -7.69 kcal/mol
solvation free energy, 298 K (in O): -5.44 kcal/mol
solvation free energy, 298 K (in [2H]O[2H]): -5.7 kcal/mol

The remaining lines, values ahead:

solvation free energy, 298 K (in O): 0.35 kcal/mol
Structure (SMILES): C=C1C2CCC(C2)C1(C)CCC=C(C)C (centres undefined)

solvation free energy, 298 K (in O): -0.11 kcal/mol
Structure (SMILES): CC(C)=CCCC(C)C1C=CC(C)=CC1 (centres undefined)

solvation free energy, 298 K (in O): 2.55 kcal/mol
Structure (SMILES): CCCCCC1CCCC1

solvation free energy, 298 K (in O): -3.2 kcal/mol
Structure (SMILES): CCCCCCCCCCCCCN

solvation free energy, 298 K (in C=CCCCCCCCCCCCCCC): -10.5 kcal/mol
solvation free energy, 298 K (in O): -16.5 kcal/mol
Structure (SMILES): O=C(O)Cc1ccc(C(=O)O)cc1

solvation free energy, 298 K (in O): 0.78 kcal/mol
Structure (SMILES): CC1=C2CC3CCC(C)C2(CC1)C3(C)C (centres undefined)

solvation free energy, 298 K (in CN(C)C=O): -9.19 kcal/mol
solvation free energy, 298 K (in O): -3.75 kcal/mol
Structure (SMILES): COC(=O)c1ccc(Cl)c(Cl)c1

solvation free energy, 298 K (in O): -9.52 kcal/mol
Structure (SMILES): O=Cc1cccc(O)c1

solvation free energy, 298 K (in O): -9.07 kcal/mol
Structure (SMILES): O=C(O)CCCc1ccccc1

solvation free energy, 298 K (in O): -20.6 kcal/mol
Structure (SMILES): CCn1ccc(NS(=O)(=O)c2ccc(N)cc2)nc1=O

solvation free energy, 298 K (in O): 1.13 kcal/mol
Structure (SMILES): CC(C)C1CCC2(C)C3CC4C(C13)C42C (centres undefined)

solvation free energy, 298 K (in O): -11.1 kcal/mol
Structure (SMILES): CCCCP(=O)(CCCC)CCCC
